Laboratory results from patent US20240308996A1, “PYRIDOPYRIDINES AND DERIVATIVES THEREOF AS SELECTIVE KINASE INHIBITORS” (University of Sharjah, priority 2023, published 2024).

Key:
IGROV1 = assay: NCI-60 cell line panel: IGROV1; type: cell-based
Procedure: (§1) It was carried out at the NCI, Bethesda, MD, USA, utilizing their standard protocol.

HOP-92 = assay: NCI-60 cell line panel: HOP-92; type: cell-based; parameters: TGI: unit not given here; details: Non-Small Cell Lung Cancer
Procedure: as §1

NCI/ADR-RES = assay: NCI-60 cell line panel: NCI/ADR-RES; type: cell-based; parameters: TGI: unit not given here; details: Ovarian Cancer
Procedure: as §1

786-0 = assay: NCI-60 cell line panel: 786-0; type: cell-based; details: Renal Cancer
Procedure: as §1

FMS = FMS (Homo sapiens, UniProt P07333); assay: Kinase IC50, FMS
A498 = assay: NCI-60 cell line panel: A498; type: cell-based; details: Renal Cancer
Procedure: as §1

MALME-3M = assay: NCI-60 cell line panel: MALME-3M; type: cell-based; details: Melanoma
Procedure: as §1

MDA-MB-435 = assay: NCI-60 cell line panel: MDA-MB-435; type: cell-based; parameters: TGI: unit not given here; details: Melanoma
Procedure: as §1

K-562 = assay: NCI-60 cell line panel: K-562; type: cell-based; parameters: TGI: unit not given here
Procedure: as §1

OVCAR-4 = assay: NCI-60 cell line panel: OVCAR-4; type: cell-based; details: Ovarian Cancer
Procedure: as §1

T-47D = assay: NCI-60 cell line panel: T-47D; type: cell-based; details: Breast Cancer
Procedure: as §1

SK-MEL-28 = assay: NCI-60 cell line panel: SK-MEL-28; type: cell-based; details: Melanoma
Procedure: as §1

HL-60(TB) = assay: NCI-60 cell line panel: HL-60(TB); type: cell-based; parameters: TGI: unit not given here; details: Leukemia
Procedure: as §1

HCT-116 = assay: NCI-60 cell line panel: HCT-116; type: cell-based; details: Colon Cancer
Procedure: as §1

Hep3B = assay: MTT assay, Hep3B HCC cell line; type: cell-based; details: Homo sapiens, 48 h, mean of triplicate assays ± SEM
Procedure: (§2) Two HCC cell lines (Hep3B and HepG2) were used for screening the antiproliferative activity of the synthesized compounds. The cell lines were obtained from the European Collection of Cell Cultures (ECACC, UK) and maintained in Dulbecco's Modified Eagle Medium (DMEM: Sigma-Aldrich) supplemented with 10% fetal bovine serum (FBS) and 1% penicillin/streptomycin and incubated at 37° C. in a 5% CO2 air atmosphere. In addition, WI-38 normal cell line was used to investigate the safety of these compounds.
(§3) MTT assay was conducted to calculate the IC50 of the compounds following the reported procedure . Briefly, the cells were seeded in 96-well tissue culture plates with a density of 5×10^4 cells/well and incubated overnight at 37° C. in a 5% CO2 air atmosphere. […] DMSO was used as a negative control. After 48 h, the media were aspirated, and replaced with media containing 0.5 mg/mL of MTT tetrazolium dye (Sigma-Aldrich) for 2 h at 37° C. Finally, the media were removed and 200 μL of DMSO was added to solubilize the formazan crystals. Absorbance was then measured at 570 nm using Varioskan Flash multimode plate reader (Thermo Scientific, Massachusetts, USA).

HepG2 = assay: MTT assay, HepG2 HCC cell line; type: cell-based; details: Homo sapiens, 48 h, mean of triplicate assays ± SEM
Procedure: as §2, §3

A549/ATCC = assay: NCI-60 cell line panel: A549/ATCC; type: cell-based; details: Non-Small Cell Lung Cancer
Procedure: as §1

COLO 205 = assay: NCI-60 cell line panel: COLO 205; type: cell-based; parameters: TGI: unit not given here; details: Colon Cancer
Procedure: as §1

SR = assay: NCI-60 cell line panel: SR; type: cell-based; details: Leukemia
Procedure: as §1

UACC-257 = assay: NCI-60 cell line panel: UACC-257; type: cell-based; details: Melanoma
Procedure: as §1

MDA-MB-468 = assay: NCI-60 cell line panel: MDA-MB-468; type: cell-based; details: Breast Cancer
Procedure: as §1

MOLT-4 = assay: NCI-60 cell line panel: MOLT-4; type: cell-based; parameters: TGI: unit not given here; details: Leukemia
Procedure: as §1

RXF 393 = assay: NCI-60 cell line panel: RXF 393; type: cell-based; details: Renal Cancer
Procedure: as §1

LOX IMVI = assay: NCI-60 cell line panel: LOX IMVI; type: cell-based; details: Melanoma
Procedure: as §1

KM12 = assay: NCI-60 cell line panel: KM12; type: cell-based; details: Colon Cancer
Procedure: as §1

SN12C = assay: NCI-60 cell line panel: SN12C; type: cell-based; details: Renal Cancer
Procedure: as §1

NCI-H522 = assay: NCI-60 cell line panel: NCI-H522; type: cell-based; parameters: TGI: unit not given here; details: Non-Small Cell Lung Cancer
Procedure: as §1

SW-620 = assay: NCI-60 cell line panel: SW-620; type: cell-based; details: Colon Cancer
Procedure: as §1

SNB-75 = assay: NCI-60 cell line panel: SNB-75; type: cell-based; parameters: TGI: unit not given here; details: CNS Cancer
Procedure: as §1

SNB-19 = assay: NCI-60 cell line panel: SNB-19; type: cell-based; details: CNS Cancer
Procedure: as §1

NCI-H322M = assay: NCI-60 cell line panel: NCI-H322M; type: cell-based; details: Non-Small Cell Lung Cancer
Procedure: as §1

[1] = total growth inhibition, in µM (unit assumed)

Sequence of FMS (P07333 20-972): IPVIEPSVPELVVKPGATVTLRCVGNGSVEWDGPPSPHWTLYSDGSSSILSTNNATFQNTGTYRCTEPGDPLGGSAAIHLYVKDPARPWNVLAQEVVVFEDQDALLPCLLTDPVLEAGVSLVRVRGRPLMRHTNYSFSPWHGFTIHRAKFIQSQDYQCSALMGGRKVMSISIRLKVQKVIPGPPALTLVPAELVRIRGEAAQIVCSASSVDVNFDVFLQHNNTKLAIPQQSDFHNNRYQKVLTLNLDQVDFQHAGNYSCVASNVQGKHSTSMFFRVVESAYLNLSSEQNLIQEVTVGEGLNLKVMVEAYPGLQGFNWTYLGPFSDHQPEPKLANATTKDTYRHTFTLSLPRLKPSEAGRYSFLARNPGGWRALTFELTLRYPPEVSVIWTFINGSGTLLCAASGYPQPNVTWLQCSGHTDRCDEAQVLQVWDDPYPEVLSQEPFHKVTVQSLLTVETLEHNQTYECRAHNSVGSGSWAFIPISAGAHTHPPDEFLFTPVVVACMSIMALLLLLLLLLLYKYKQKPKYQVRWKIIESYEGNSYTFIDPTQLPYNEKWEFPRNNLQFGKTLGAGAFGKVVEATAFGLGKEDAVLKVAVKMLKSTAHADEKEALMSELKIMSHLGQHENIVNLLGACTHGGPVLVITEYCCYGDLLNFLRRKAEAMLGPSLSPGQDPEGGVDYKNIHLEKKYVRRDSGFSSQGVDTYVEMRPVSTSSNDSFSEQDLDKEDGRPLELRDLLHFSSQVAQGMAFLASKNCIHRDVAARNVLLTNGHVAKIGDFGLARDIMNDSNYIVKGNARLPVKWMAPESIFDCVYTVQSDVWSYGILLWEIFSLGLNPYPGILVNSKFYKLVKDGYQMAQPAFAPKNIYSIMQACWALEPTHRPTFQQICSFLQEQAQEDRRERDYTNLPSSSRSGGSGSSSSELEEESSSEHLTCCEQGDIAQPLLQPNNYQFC

`CNC(=O)c1cc(-c2ccc(NC(=O)Nc3ccc(N4CCN(C)CC4)c(C(F)(F)F)c3)cc2)nc2cccnc12` [Compound 13b, N-Methyl-2-(4-(3-(4-(4-methylpiperazin-1-yl)-3-(trifluoromethyl)phenyl)ureido)phenyl)-1,5-naphthyridine-4-carboxamide] gave an IC50 (IGROV1; Homo sapiens, IGROV-1, Ovarian Cancer) of 17.7 µM, a TGI (IGROV1; Ovarian Cancer, total growth inhibition) of 36.6 µM and an IC50 (HOP-92; Homo sapiens) of 6.54 µM. The TGI (HOP-92; total growth inhibition) was 100, the IC50 (NCI/ADR-RES; Homo sapiens) was 14.2 µM and the TGI (NCI/ADR-RES; total growth inhibition) was 45.4. For the same compound, the IC50 (786-0; Homo sapiens) was 1.81 µM, the TGI (786-0; total growth inhibition) was 3.52 µM and the IC50 (FMS) was 0.0215 ± 0.0002 µM. For the same compound, the “potency against FMS kinase compared with sorafenib” value (FMS) was “more potent than the known drug sorafenib”, the “potency and selectivity against FMS kinase (IC50 values)” value (FMS; against the most sensitive kinases) was “high potency and selectivity against FMS kinase” and the IC50 (A498; Homo sapiens) was at least 100 µM. The TGI (A498; total growth inhibition) was 100 µM, the IC50 (MALME-3M; Homo sapiens) was 1.68 µM and the TGI (MALME-3M; [1]) was 3.21. It also gave an IC50 (MDA-MB-435; Homo sapiens) of 1.75 µM, a TGI (MDA-MB-435; total growth inhibition) of 3.27 and an IC50 (K-562; Homo sapiens, K562, Leukemia) of 2.12 µM. For the same compound, the TGI (K-562; Leukemia, total growth inhibition) was 5.35, the IC50 (OVCAR-4; Homo sapiens) was 15.7 µM and the TGI (OVCAR-4; [1]) was 31.6. It also gave a TGI (T-47D; total growth inhibition) of 43.4 µM, an IC50 (T-47D; Homo sapiens, T47D) of 17 µM and an IC50 (SK-MEL-28; Homo sapiens) of 1.67 µM. The TGI (SK-MEL-28; total growth inhibition) was 3.11 µM, the IC50 (HL-60(TB); Homo sapiens) was 16.2 µM and the TGI (HL-60(TB); total growth inhibition) was 38.7. The TGI (HCT-116; total growth inhibition) was 75.6 µM, the IC50 (HCT-116; Homo sapiens) was 4.09 µM and the IC50 (Hep3B) was 2.32 ± 0.02 µM. The IC50 (HepG2) was 1.48 ± 0.09 µM, the IC50 (A549/ATCC; Homo sapiens) was 10.9 µM and the TGI (A549/ATCC; total growth inhibition) was 24.3 µM. For the same compound, the TGI (COLO 205; total growth inhibition) was 32.8, the IC50 (COLO 205; Homo sapiens) was 16.8 µM and the IC50 (SR; Homo sapiens) was 9.97 µM. It also gave a TGI (SR; total growth inhibition) of 44.6 µM, an IC50 (UACC-257; Homo sapiens) of 15.3 µM and a TGI (UACC-257; total growth inhibition) of 28.8 µM. For the same compound, the TGI (MDA-MB-468; total growth inhibition) was 32.9 µM, the IC50 (MDA-MB-468; Homo sapiens) was 14.8 µM and the IC50 (MOLT-4; Homo sapiens) was 2.79 µM. For the same compound, the TGI (MOLT-4; total growth inhibition) was 14.9, the IC50 (RXF 393; Homo sapiens) was 3.38 µM and the TGI (RXF 393; total growth inhibition) was 15 µM. The IC50 (LOX IMVI; Homo sapiens) was 0.66 µM, the TGI (LOX IMVI; total growth inhibition) was 24.5 µM and the TGI (KM12; total growth inhibition) was 43.3 µM. It also gave an IC50 (KM12; Homo sapiens) of 17.4 µM, an IC50 (SN12C; Homo sapiens) of 16.7 µM and a TGI (SN12C; total growth inhibition) of 34.7 µM. It also gave an IC50 (NCI-H522; Homo sapiens) of 16.5 µM, a TGI (NCI-H522; total growth inhibition) of 31.1 and a TGI (SW-620; total growth inhibition) of 4.62 µM. For the same compound, the IC50 (SW-620; Homo sapiens) was 2.11 µM, the TGI (SNB-75; total growth inhibition) was 28.4 and the IC50 (SNB-75; Homo sapiens) was 14.9 µM. For the same compound, the TGI (SNB-19; total growth inhibition) was 33.2 µM, the IC50 (SNB-19; Homo sapiens) was 16.8 µM and the IC50 (NCI-H322M; Homo sapiens) was 15.6 µM. For the same compound, the TGI (NCI-H322M; total growth inhibition) was 29.8 µM.
